Molecular target: T1, rPEPT1 (Rattus norvegicus, UniProt P51574)
T1 construct: expressed in transfected cells; host or cells: CHO cells
T1 sequence (P51574 1-710): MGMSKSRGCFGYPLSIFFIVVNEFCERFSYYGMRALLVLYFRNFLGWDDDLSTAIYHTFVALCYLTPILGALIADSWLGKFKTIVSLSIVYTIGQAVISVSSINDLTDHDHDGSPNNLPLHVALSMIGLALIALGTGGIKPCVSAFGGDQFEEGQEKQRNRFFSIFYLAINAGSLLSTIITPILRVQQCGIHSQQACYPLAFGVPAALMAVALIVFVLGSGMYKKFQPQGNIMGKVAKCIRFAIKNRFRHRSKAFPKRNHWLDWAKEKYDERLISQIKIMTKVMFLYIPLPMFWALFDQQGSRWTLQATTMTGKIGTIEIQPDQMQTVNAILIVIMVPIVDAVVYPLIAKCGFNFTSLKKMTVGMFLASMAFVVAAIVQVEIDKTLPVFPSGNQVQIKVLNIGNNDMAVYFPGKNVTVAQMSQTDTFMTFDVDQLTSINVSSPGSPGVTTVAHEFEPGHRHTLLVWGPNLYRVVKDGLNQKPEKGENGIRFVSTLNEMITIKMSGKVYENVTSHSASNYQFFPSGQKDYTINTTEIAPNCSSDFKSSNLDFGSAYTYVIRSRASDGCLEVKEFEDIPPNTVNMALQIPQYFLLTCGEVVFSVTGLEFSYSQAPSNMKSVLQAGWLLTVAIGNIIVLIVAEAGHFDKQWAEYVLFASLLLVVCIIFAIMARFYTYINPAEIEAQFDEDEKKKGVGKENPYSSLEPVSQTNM
Test: Transport-induced currents in Xenopus oocytes expressing rPEPT1
Assay type: cell-based
Settings: response relative to Gly-Sar, test compound 1 mM
Description: Rat and human PEPT1 and PEPT2 expressing CHO cell lines were prepared as described in PCT Application WO01/20331. Gabapentin-containing dipeptides were evaluated for interaction with the peptide transporters using a radiolabeled substrate uptake assay in a competitive inhibition format, as described in PCT Application WO01/20331. Transport-induced currents were also measured in Xenopus oocytes transfected with rat and human PEPT1 and PEPT2.

Structure (SMILES): NCC(=O)NCC1(CC(=O)O)CCCCC1 [Gly-Gabapentin]
- % Max. (Gly-Sar): 76%
